Measured values from the supplement of paper PMC10307832.

Columns and labels:
Experiment in all cases: relative viability (nuclei count vs DMSO), 5 days (fraction); higher = more cells survive
NCI-H3122 = system: NCI-H3122
In short: (§1)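 Relative viability was taken as the ratio of nuclei in treated wells to nuclei in vehicle wells. Lung cancer cell lines in 1536-well plates received compounds by pin tool one day after seeding, either one drug alone or a fixed anchor-drug dose plus five library-drug doses (not always all listed) in √10 steps. Nuclei were counted on 4× images after 5 days of treatment, and values are medians of duplicate plates.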

ChaGo-K-1 = system: ChaGo-K-1
In short: as §1

NCI-H2405 = system: NCI-H2405
In short: as §1

HCC-366 = system: HCC-366
In short: as §1

NCI-H596 = system: NCI-H596
In short: as §1

PC-14 = system: PC-14
In short: as §1

HOP-62 = system: HOP-62
In short: as §1

NCI-H2085 = system: NCI-H2085
In short: as §1

NCI-H1734 = system: NCI-H1734
In short: as §1

NCI-H1993 = system: NCI-H1993
In short: as §1

NCI-H2347 = system: NCI-H2347
In short: as §1

RERF-LC-KJ = system: RERF-LC-KJ
In short: as §1

HCC-78 = system: HCC-78
In short: as §1

NCI-H838 = system: NCI-H838
In short: as §1

CAL-12T = system: CAL-12T
In short: as §1

LC-2-ad = system: LC-2-ad
In short: as §1

NCI-H1355 = system: NCI-H1355
In short: as §1

EMC-BAC-2 = system: EMC-BAC-2
In short: as §1

LK-2 = system: LK-2
In short: as §1

## Cc1cnc(-c2cnc(NCCNc3ccc(C#N)cn3)nc2-c2ccc(Cl)cc2Cl)[nH]1 + NC(=O)Nc1cc(-c2cccc(F)c2)sc1C(=O)N[C@H]1CCCNC1 [AZD7762] (partner 0.2 µM)
NCI-H3122; first compound 0.08 µM
  relative viability: 0.995
NCI-H3122; first compound 0.8 µM
  relative viability: 1.03
NCI-H3122; first compound 2.53 µM
  relative viability: 0.98
ChaGo-K-1; first compound 0.08 µM
  relative viability: 0.843
ChaGo-K-1; first compound 0.253 µM
  relative viability: 0.754
ChaGo-K-1; first compound 0.8 µM
  relative viability: 0.82
ChaGo-K-1; first compound 2.53 µM
  relative viability: 0.814
NCI-H2405; first compound 0.08 µM
  relative viability: 0.758
NCI-H2405; first compound 0.253 µM
  relative viability: 0.595
NCI-H2405; first compound 0.8 µM
  relative viability: 0.744
NCI-H2405; first compound 2.53 µM
  relative viability: 0.333
HCC-366; first compound 0.08 µM
  relative viability: 0.284
HCC-366; first compound 0.253 µM
  relative viability: 0.202
HCC-366; first compound 0.8 µM
  relative viability: 0.197
HCC-366; first compound 2.53 µM
  relative viability: 0.0746
NCI-H596; first compound 0.08 µM
  relative viability: 1.3
NCI-H596; first compound 0.253 µM
  relative viability: 0.974
NCI-H596; first compound 0.8 µM
  relative viability: 1.09
NCI-H596; first compound 2.53 µM
  relative viability: 1.01
PC-14; first compound 0.08 µM
  relative viability: 0.347
PC-14; first compound 0.253 µM
  relative viability: 0.316
PC-14; first compound 0.8 µM
  relative viability: 0.365
PC-14; first compound 2.53 µM
  relative viability: 0.392
HOP-62; first compound 0.08 µM
  relative viability: 0.817
HOP-62; first compound 0.253 µM
  relative viability: 0.383
HOP-62; first compound 0.8 µM
  relative viability: 0.45
HOP-62; first compound 2.53 µM
  relative viability: 0.748
NCI-H2085; first compound 0.08 µM
  relative viability: 1.02
NCI-H2085; first compound 0.253 µM
  relative viability: 0.77
NCI-H2085; first compound 0.8 µM
  relative viability: 0.901
NCI-H2085; first compound 2.53 µM
  relative viability: 1.05
NCI-H1734; first compound 0.08 µM
  relative viability: 0.513
NCI-H1734; first compound 0.253 µM
  relative viability: 0.522
NCI-H1734; first compound 0.8 µM
  relative viability: 0.543
NCI-H1734; first compound 2.53 µM
  relative viability: 0.459
NCI-H1993; first compound 0.08 µM
  relative viability: 0.918
NCI-H1993; first compound 0.253 µM
  relative viability: 0.683
NCI-H1993; first compound 0.8 µM
  relative viability: 0.703
NCI-H1993; first compound 2.53 µM
  relative viability: 0.9
NCI-H2347; first compound 0.08 µM
  relative viability: 0.873
NCI-H2347; first compound 0.253 µM
  relative viability: 0.612
NCI-H2347; first compound 0.8 µM
  relative viability: 0.689
NCI-H2347; first compound 2.53 µM
  relative viability: 0.79
RERF-LC-KJ; first compound 0.08 µM
  relative viability: 1.08
RERF-LC-KJ; first compound 0.253 µM
  relative viability: 0.801
RERF-LC-KJ; first compound 0.8 µM
  relative viability: 0.881
RERF-LC-KJ; first compound 2.53 µM
  relative viability: 0.985
HCC-78; first compound 0.08 µM
  relative viability: 0.582
HCC-78; first compound 0.253 µM
  relative viability: 0.582
HCC-78; first compound 0.8 µM
  relative viability: 0.604
HCC-78; first compound 2.53 µM
  relative viability: 0.606
NCI-H838; first compound 0.08 µM
  relative viability: 0.973
NCI-H838; first compound 0.253 µM
  relative viability: 0.919
NCI-H838; first compound 0.8 µM
  relative viability: 0.941
NCI-H838; first compound 2.53 µM
  relative viability: 0.983
CAL-12T; first compound 0.08 µM
  relative viability: 0.586
CAL-12T; first compound 0.253 µM
  relative viability: 0.567
CAL-12T; first compound 0.8 µM
  relative viability: 0.544
CAL-12T; first compound 2.53 µM
  relative viability: 0.693
LC-2-ad; first compound 0.08 µM
  relative viability: 0.851
LC-2-ad; first compound 0.8 µM
  relative viability: 0.687
LC-2-ad; first compound 2.53 µM
  relative viability: 0.841
NCI-H1355; first compound 0.08 µM
  relative viability: 0.831
NCI-H1355; first compound 0.253 µM
  relative viability: 0.624
NCI-H1355; first compound 0.8 µM
  relative viability: 0.691
NCI-H1355; first compound 2.53 µM
  relative viability: 0.577
EMC-BAC-2; first compound 0.08 µM
  relative viability: 1.24
EMC-BAC-2; first compound 0.253 µM
  relative viability: 1.21
EMC-BAC-2; first compound 0.8 µM
  relative viability: 1.04
EMC-BAC-2; first compound 2.53 µM
  relative viability: 1.01
LK-2; first compound 0.08 µM
  relative viability: 0.436
LK-2; first compound 0.253 µM
  relative viability: 0.421
LK-2; first compound 2.53 µM
  relative viability: 0.393
